Tests used:
Type in all cases: cell-based
human sperm [1] = test: Flow cytometric quantitation of sperm acrosome reaction (anti-CD46 mAb binding); conditions: tested at 100 μM, 3 hours, 37° C., mean of two experiments
Procedure: In experiments designed to assess the comparative effects of oxovanadium (IV) complexes and N-9 on sperm acrosome reaction, motile fractions of sperm (10^7/ml) prepared from a single donor were incubated in 1 ml of BWW−0.3% BSA in the presence of 100 μM each of the vanadocene complexes, VO(phen), VO(phen)2, VO(Me2—phen), VO(Me2—phen)2, VO(Cl—phen), VO(Cl—phen)2, VO(bipy), VO(bipy)2, VO(Me2—bipy), VO(Me2—bipy)2, and VO(Br,OH—acph)2 in 0.1% DMSO, N-9, or DMSO (0.1%) alone at 37° C. After 3 hours, 5 μg/ml of purified, phycoerythrin (PE)-conjugated murine anti-CD46 monoclonal antibody (mAb; clone 122-2; Research Diagnostics, Flanders, N.J.) was added and the sperm suspensions incubated for an additional 30 minutes. The suspensions was washed in Tyrode's salt solution (Sigma) containing 1% BSA (1% TBSA) and the percentage of CD46-positive sperm were analyzed by flow cytometry using a FACS Vantage flow cytometer (Becton Dickinson, Mountain View, Calif.), as described previously (DeCruz et al., 1996, Biol Reprod. 54:1217-1228; DeCruz et al., 1992, Fertil. Seril., 58:633-636). Two separate experiments were performed to quantitate acrosomal loss following exposure of sperm to oxovanadium (IV) complexes.

human sperm [2] = test: Mitochondrial transmembrane potential (JC-1 dye) flow cytometry; conditions: 100 μM, 3 hours, 37° C.
Excerpt: The loss of ΔΨm, a early marker for apoptosis was quantitated by flow cytometry using the lipophilic cationic dye, 5,5′,6,6′-tetrachloro 1,1′,3,3′-tetraethylbenzimidazolecarbocyanine iodide (JC-1) as described in Cossarizza et al., 1993, BBRC 197:40-45. This dye accumulates in the mitochondrial matrix under the influence of the ΔΨm. The molecule is able to selectively enter into mitochondria, the monomeric form emitting at 527 nm after excitation at 490 nm. However, depending on the membrane potential, JC-1is able to form J-aggregates that are associated with a large shift in emission (590 nm). The color of the dye changes reversibly from green to greenish orange at ΔΨm becomes more polarized.
To quantitate changes in sperm ΔΨm following oxovanadium (IV) complex exposure, highly motile fraction of sperm (10^7/ml) in duplicate aliquots, were incubated at 37° C. for 3 hours in BWW−0.3% BSA medium in the presence and absence of 100 μM each of the vanadocene complexes, VO(phen), VO(phen)2, VO(Me2—phen), VO(Me2—phen)2, VO(Cl—phen), VO(Cl—phen)2, VO(bipy), VO(bipy)2, VO(Me2—bipy), VO(Me2—bipy)2, and VO(Br,OH—acph)2. Following incubation, 10 μg/ml JC-1 (Molecular Probes, Eugene, Oreg.) was added from a stock solution in DMSO (1 mg/ml) to the sperm suspension and incubated for an additional 10 minutes. At the end of the incubation period, sperm were washed in Tyrode's salt solution (Sigma), resuspended in 200 μl, and analyzed by flow cytometry for JC-1-specific fluorescence. The excitation was at 488 nm; the emissions for green and red/orange fluorescence were 530 nm and 575 nm respectively. JC-1 monomer and aggregated fluorescence were simultaneously measured in oxovanadium (IV) complex-exposed and control sperm. The percentages of sperm positive for green, orange, and greenish orange were determined using the cutoff signals for JC-1 labeled motile sperm.

human sperm [3] = test: DNA fragmentation by in situ nick-end labeling (TUNEL) flow cytometry; conditions: 100 μM, 24 hours, 37° C.
Procedure: A flow cytometric two-color terminal deoxynucleotidyl transferase (TdT) assay was employed to detect apoptotic sperm nuclei by TdT-mediated dUTP nick-end labeling (TUNEL, as described in Gavrieli et al., 1992, J. Cell Biol., 119:493-501). The comparative effect of the oxovanadium (IV) complexes, VO(phen), VO(phen)2, VO(Me2—phen), VO(Me2—phen)2, VO(Cl—phen), VO(Cl—phen)2, VO(bipy), VO(bipy)2, VO(Me2—bipy), VO(Me2—bipy)2, and VO(Br,OH—acph)2, to induce apoptosis was tested by incubating 1 ml duplicate aliquots of motile sperm (10^7/ml) in BWW−0.3% BSA at 37° C. for 24 hours with and without 100 μM each of the test compounds. Sperm were washed in phosphate-buffered saline (PBS)−1% BSA, fixed in 4% paraformaldehyde in PBS for 15 minutes. Following two washings in PBS, they were permeabilized with 0.1% Triton X-100 in 0.1% sodium citrate for 2 minutes on ice, and washed twice with PBS. New 3′-hydroxyl (3′—OH) end labeling of fragmented sperm nuclear DNA was performed using TdT and detected by fluorescein (FITC)-conjugated uridine triphosphate (dUTP) according to the manufacturer's recommendations (Boehringer-Mannheim, Indianapolis, Ind.). Sperm aliquots incubated without TdT enzyme served as a negative control. […] Oxovanadium (IV)-induced apopotosis of sperm was shown by an increase in the number of cells staining with FITC- dUTP (M2 gates). The M1 and M2 gates were used to demarcate non-apoptotic and apoptotic PI-counterstained sperm populations, respectively. Two separate experiments were performed to assess dUTP incorporation following exposure of sperm to oxovanadium (IV) complexes.

Anti-CD46 positive sperm (%) (human sperm [1]) | Anti-CD46 positive sperm (%) (human sperm [1]; listed as VO(Br,OH—acph)2) | Anti-CD46 positive sperm (%) (human sperm [1]; listed as VO(Cl—phen)2) | Compound | JC-1 aggregate-positive sperm (%) (human sperm [2]) | TUNEL positive sperm (%) (human sperm [3]) | TUNEL positive sperm (%) (human sperm [3]; listed as VO(Cl—phen)2)
6.4 | – | – | (diaqua)(4,4′-dimethyl-2,2′-bipyridyl)oxovanadium (IV) sulfate [VO(Me2-bipy)] | 88 | 45 | –
6.1 | – | – | O.O.O=S(=O)([O-])[O-].[O]=[V+2].c1ccc(-c2ccccn2)nc1 [VO(bipy), (diaqua)(2,2′-bipyridyl)oxovanadium (IV) sulfate] | 95 | 43 | –
14.0 | – | – | Cc1ccnc2c1ccc1c(C)ccnc12.O.O.O=S(=O)([O-])[O-].[O]=[V+2] [VO(Me2-phen), (diaqua)(4,7-dimethyl-1,10-phenanthroline)oxovanadium (IV) sulfate] | 38 | 97 | –
3.2 | – | – | (aqua)bis(4,4′-dimethyl-2,2′-bipyridyl)oxovanadium (IV) sulfate [VO(Me2-bipy)2] | 62 | 63 | –
9.9 | – | – | O.O=S(=O)([O-])[O-].[O]=[V+2].c1cnc2c(c1)ccc1cccnc12.c1cnc2c(c1)ccc1cccnc12 [VO(phen)2, (aqua)bis(1,10-phenanthroline)oxovanadium (IV) sulfate] | 25 | 98 | –
24.3 | 24.3 | – | bis(5′-bromo-2′-hydroxyacetophenone)oxovanadium (IV) [VO(Br,OH-acph)2] | 83 | 98 | –
9.7 | – | – | O.O.O=S(=O)([O-])[O-].[O]=[V+2].c1cnc2c(c1)ccc1cccnc12 [VO(phen), (diaqua)(1,10-phenanthroline)oxovanadium (IV) sulfate] | 35 | 98 | –
11.2 | – | – | Clc1cc2cccnc2c2ncccc12.O.O.O=S(=O)([O-])[O-].[O]=[V+2] [VO(Cl-phen), (diaqua)(5-chloro-1,10-phenanthroline)oxovanadium (IV) sulfate] | 39 | 95 | –
21.5 | – | 21.5 | Clc1cc2cccnc2c2ncccc12.Clc1cc2cccnc2c2ncccc12.O.O=S(=O)([O-])[O-].[O]=[V+2] [VO(Cl-phen)2, (aqua)bis(5-chloro-1,10-phenanthroline)oxovanadium (IV) sulfate] | 35 | 97 | Greater than 97%
11.7 | – | – | Cc1ccnc2c1ccc1c(C)ccnc12.Cc1ccnc2c1ccc1c(C)ccnc12.O.O=S(=O)([O-])[O-].[O-2].[V+4] [VO(Me2-phen)2, (aqua)bis(4,7-dimethyl-1,10-phenanthroline)oxovanadium (IV) sulfate] | 63 | 94 | –
4.7 | – | – | O.O=S(=O)([O-])[O-].[O-2].[V+4].c1ccc(-c2ccccn2)nc1.c1ccc(-c2ccccn2)nc1 [VO(bipy)2, (aqua)bis(2,2′-bipyridyl)oxovanadium (IV) sulfate] | 94 | 40 | –
